This note sets out measurements from a melting point compilation (Tetko et al.; mined from patent text by program, amines drawn as free bases though some values may be those of a salt).

`CNCCC1CCc2cc(OCc3ccc(-c4ccccc4)cc3)ccc2C1` (stereo unspecified) came in with a melting point of 75 to 76 °C.

The molecule `CN(Cc1ccccc1)C(=O)COc1ccc([N+](=O)[O-])cc1` showed a melting point of 95 to 96 °C.

On to `CCOc1ccc(C2C(=O)Oc3c2cc(C(C)(C)C)cc3C(C)(C)C)cc1` (stereo unspecified), for which the melting point is 132 to 134 °C.

`COc1cc(C(C)C)ccc1C1(NC(=O)C2CC2)C(=O)c2ccccc2C1=O` returned a melting point of 145 to 147 °C.

In turn, `O=[N+]([O-])c1ccc2c(c1)S(=O)(=O)N=C(NCC1CC1)N2` displayed a melting point of 276 to 278 °C.

As to `CCOC(=O)CN1C(=O)Nc2cccc(OC)c2C1C` (stereo unspecified), the melting point was 150 to 151 °C.

`c1ccc(-c2cc3ncnc(Nc4ccc5c(ccn5CCN5CCOCC5)c4)c3s2)cc1` showed a melting point of 225 to 226 °C.

For the molecule `Cc1cc(NCc2ccc3oc(-c4ccccc4C#N)c(Br)c3c2)n2nccc2n1`, the melting point was 210 to 215 °C.

Consider `N#Cc1ccc(-c2ncc(C(F)(F)F)cc2Cl)cc1O`, for which the melting point fell in the range of 155 to 157 °C.

`Oc1cccc(-c2nn(C3CCCC3)c3c(Cl)cccc23)c1F`: the melting point lay within 150 to 151 °C.

In turn, `CCc1nc2c(C)cc(C)nc2n1Cc1ccc(C(=C(Cl)C(=O)O)c2ccccc2)cc1` came in with a melting point of 120 to 125 °C.

In turn, `CCNc1cccnc1N1CCN(C(=O)c2ccc(C(=O)NCc3ccccn3)cn2)CC1` had a melting point of 129 to 131 °C.

`Cc1ccccc1C(=O)Nc1ccc(C(=O)N2CCCC(NC(=O)CN(C)C)c3ccccc32)cc1` (stereo unspecified) gave a melting point of 214 to 216 °C.

In turn, `CN(C)C1(c2ccccc2)CCC(c2cccs2)(c2[nH]c3ccccc3c2CCc2ccncc2)CC1` (stereo unspecified) returned a melting point of 54 to 60 °C.

`CC(C)C[C@H](NC(=O)OC1CCCCC1)C(=O)N[C@@H](Cc1ccccc1)C(=O)CSCc1ccco1` had a melting point of 102 to 103 °C.

Regarding `O=C(c1ccc(O)cc1)c1c(Cc2ccccc2)oc2ccccc12`, the melting point is 146 to 149 °C.

Regarding `O=C(CCCCCOc1ccc([N+](=O)[O-])cc1)OCCOCCOC(=O)CCCCCOc1ccc([N+](=O)[O-])cc1`, the melting point fell in the range of 60 to 62 °C.

In the case of `NC(=NO)c1ncn2c1[C@@H]1CCCN1C(=O)c1c(Cl)cccc1-2`, the melting point lay within 249 to 250 °C.

In turn, `COCc1cnc2c(NC(=O)c3c(Cl)cccc3Cl)ccc(C)c2c1N1CCN(C)C1=O` returned a melting point of 105 to 112 °C.

Consider `CC(=Cc1ccc(F)cc1)COc1cc(C)c(NC=O)c(C)c1C`, for which the melting point was in the range of 164 to 165 °C.

Turning to `OCC(CCNC1CCC(c2ccc(OCc3ccccc3)cc2)CC1)c1ccccc1` (racemic), the melting point was in the range of 140 to 142 °C.

`O=C(CCc1cc(-c2ccccc2)nc2ccccc12)N1CCCCC1` had a melting point of 110 °C.

For the molecule `CC(=O)N[C@@H](CSC(=O)c1ccccc1)C(=O)NCCSC(=O)C(C)(C)C`, the melting point was 133 to 134 °C.

The molecule `CCOC(=O)C(O)C(Oc1ccccc1[N+](=O)[O-])c1ccccc1` (stereo unspecified) gave a melting point of 129 to 131 °C.

`COC(=O)C1=C(C)OC(C)=C(C(=O)OC)C1c1ccccc1`: the melting point stood at 62.5 °C.

The molecule `O=C1C=C(c2ccc(Cl)cc2)C(=O)O1` came in with a melting point of 144 to 145 °C.

`Cn1c(=O)c(-c2ccccc2)cc2cnc(N)nc21`: the melting point fell in the range of 250 to 255 °C.

`CC1CCCN(c2nc(S(C)(=O)=O)nc(Cl)c2-c2c(F)cc(F)cc2F)O1` (stereo unspecified) showed a melting point of 160 to 162 °C.

In turn, `Nc1ccc(NC2CCCCC2)cc1` yielded a melting point of 59 to 61 °C.

Molecule `COC(=O)/C=C/c1c(O)cccc1OCCCCC(=O)OC` yielded a melting point of 97 to 98 °C.

For `CCCCCC1CN(C(=O)c2cc(OC)c(OC)c(OC)c2)CCN1C(=O)c1cc(OC)c(OC)c(OC)c1` (stereo unspecified), the melting point was 139 to 140 °C.

Take `C=CC(=O)OCCOc1ccc(-c2nc(-c3ccc(C)cc3C)nc(-c3ccc(C)cc3C)n2)c(O)c1`: the melting point lay in the range of 128 to 129 °C.

Molecule `Cc1nnc2n1-c1ccccc1CS2` showed a melting point of 142 to 144 °C.

The molecule `Cc1cccc(Nc2cc(Cl)nc(SCC(=O)NC(C)C)n2)c1C` yielded a melting point of 156 to 158 °C.

For the molecule `CC1(C)CCC(C)(C)c2cc(Cn3cccn3)c(/C=C/c3ccc(C(=O)O)cc3)cc21`, the melting point was 246 to 248 °C.

`COc1ccc2nc(NC(=O)c3nnn(Cc4ccc(Cl)c(Cl)c4)c3C)sc2c1` returned a melting point of 225 °C.

Molecule `O=C(CCCCN1CCCCC1)c1ccc2c(c1)Cc1cc(C(=O)CCCCN3CCCCC3)ccc1-2` came in with a melting point of 124 to 127 °C.

`CCOC(=O)Nc1ccc(C2CCN(C(=O)OCC)CC2)cc1` came in with a melting point of 105 to 107 °C.

With `CCCc1nc2c(N)nc3cc(-c4ccc(F)cc4CN)ccc3c2s1`, the melting point lay in the range of 181 to 184 °C.

Take `CCS(=O)c1nn(-c2ccccc2)c(=O)c2c(N)scc12` (stereo unspecified): the melting point fell in the range of 204 to 205 °C.

For `COc1cc(C(C)(C)CCCC(=O)OC2CC(C)(C)NC(C)(C)C2)c(O)cc1C(C)(C)CCCC(=O)OC1CC(C)(C)NC(C)(C)C1`, the melting point was in the range of 165 to 168 °C.

Molecule `COc1cccc(-c2ccc3nnn(Cc4ccc5ncccc5c4)c3n2)c1` displayed a melting point of 133 to 135 °C.

Molecule `c1ccc2c(c1)CCc1c-2n[nH]c1-c1ccncc1` registered a melting point of 229 °C.

In turn, `CN(C)CCCn1cc(C(=O)NCc2ccc(Cl)cc2)c(=O)c2cc(C#CCO)ccc21` returned a melting point of 172 to 175 °C.

`O=C(O)c1cc(Br)cc2c1NCCS2(=O)=O`: the melting point fell in the range of 250 to 251 °C.

`COC(=O)c1ccccc1S(=O)(=O)NC(=O)n1nc(Cl)n(N(C)C)c1=O` returned a melting point of 146 °C.

Consider `COC(=O)C1=C(CC(=O)N2CCN(C)CC2)NC(CS(=O)c2ccccc2OC)=C(C(=O)OC)C1c1c(Cl)cccc1Cl` (stereo unspecified), for which the melting point worked out at 160 °C.

Molecule `COc1cccc(CN2CCc3cc(O)c(OC)cc3C2C)c1` (stereo unspecified) showed a melting point of 97 to 99 °C.

In turn, `COC(=O)C1Cc2ccccc2CC(C(=O)OC)C1=O` (stereo unspecified) gave a melting point of 100 to 110 °C.

`CC(=O)N1CCSC1Cc1cnn(-c2ccccc2)c1-c1ccc(Cl)cc1` (stereo unspecified) gave a melting point of 121 to 122 °C.

Molecule `OCC1OC(n2cnc3cncnc32)CC1F` (stereo unspecified) showed a melting point of 89 °C.

On to `CCCCC(=O)c1c(-c2ccc3cc(OCC(=O)O)ccc3c2)oc2ccccc12`, for which the melting point fell in the range of 130 to 132 °C.

For `O=C(c1ccccc1)n1c2c(c3ccccc31)CC(C(=O)O)(C(=O)O)CC2`, the melting point stood at 160 °C.

`O=C(Oc1ccc(Cl)c(Cl)c1)c1cc2c(cn1)[nH]c1ccccc12` showed a melting point of 260 to 261 °C.

As to `O=C(Nc1ccc(Cl)cc1)c1ccc2cccnc2c1O`, the melting point was 207 to 209 °C.

`CCCCCN1CC[C@@H](c2ccccc2C(F)(F)F)[C@H](CO)C1` (racemic) showed a melting point of 110 °C.

Turning to `Nc1nc(-c2ccccn2)nc2ccccc12`, the melting point fell in the range of 173 to 174 °C.

`Cc1ccc(S(=O)(=O)OC2CCc3c(c4ccccc4n3C)C2)cc1` (stereo unspecified): the melting point lay within 104 to 106 °C.

In turn, `Nc1nc2ccccc2n1-c1ccc(-c2ccco2)cc1` registered a melting point of 210 to 212 °C.

In turn, `NC(=O)c1cc([N+](=O)[O-])ccc1SSc1ccc([N+](=O)[O-])cc1C(N)=O` came in with a melting point of 266 to 269 °C.

In the case of `Cc1sc2c(c1C(=O)c1ccc([N+](=O)[O-])cc1)CCC2C(=O)O` (stereo unspecified), the melting point was in the range of 156 to 158 °C.

What is called melting point is the temperature, or range, at which the solid turns liquid.
